Reference: patent US9738637B2, “Histone demethylase inhibitors” (Quanticel Pharmaceuticals, Inc., priority 2013, dated 2017)

Key:
Format in all cases: biochemical
Jarid1A = Jarid1A (Homo sapiens (Human), UniProt P29375); experiment: Jarid1A in vitro enzyme inhibition assay (TR-FRET); conditions: H3K4me3-biotin peptide
Description: (§1) This assay determines the ability of a test compound to inhibit Jarid1A, Jarid1B, JMJD2C, and JMJD2A demethylase activity.
The enzymatic assay of Jarid1A activity is based upon Time Resolved-Fluorescence Resonance Energy Transfer (TR-FRET) detection.
The assay reaction was initiated by the following: 2 μl of the mixture of 900 nM H3K4me3-biotin labeled peptide and 6 μM alpha-ketoglutaric acid with 2 μl of 11-point serial diluted inhibitor in 3% DMSO was added to each well of plate, followed by the addition of 2 μl of 3 nM Jarid1A to initiate the reaction. The reaction mixture was incubated at room temperature for 30 minutes, and terminated by the addition of 6 μl of 5 mM EDTA in LANCE detection buffer containing 50 nM Phycolink Streptavidin-allophycocyanin and 2 nM Europium-anti-H3K4me1-2 antibody.
(§2) The ability of the compounds disclosed herein to inhibit demethylase activity was quantified and the respective IC50 value was determined.

Jarid1B = Jarid1B (Homo sapiens (Human), UniProt Q9UGL1); experiment: Jarid1B in vitro enzyme inhibition assay (TR-FRET); conditions: TR-FRET, H3K4me3-biotin peptide; read-out: IC50 Jarid1B
Chain of Jarid1B (Q9UGL1 2-751): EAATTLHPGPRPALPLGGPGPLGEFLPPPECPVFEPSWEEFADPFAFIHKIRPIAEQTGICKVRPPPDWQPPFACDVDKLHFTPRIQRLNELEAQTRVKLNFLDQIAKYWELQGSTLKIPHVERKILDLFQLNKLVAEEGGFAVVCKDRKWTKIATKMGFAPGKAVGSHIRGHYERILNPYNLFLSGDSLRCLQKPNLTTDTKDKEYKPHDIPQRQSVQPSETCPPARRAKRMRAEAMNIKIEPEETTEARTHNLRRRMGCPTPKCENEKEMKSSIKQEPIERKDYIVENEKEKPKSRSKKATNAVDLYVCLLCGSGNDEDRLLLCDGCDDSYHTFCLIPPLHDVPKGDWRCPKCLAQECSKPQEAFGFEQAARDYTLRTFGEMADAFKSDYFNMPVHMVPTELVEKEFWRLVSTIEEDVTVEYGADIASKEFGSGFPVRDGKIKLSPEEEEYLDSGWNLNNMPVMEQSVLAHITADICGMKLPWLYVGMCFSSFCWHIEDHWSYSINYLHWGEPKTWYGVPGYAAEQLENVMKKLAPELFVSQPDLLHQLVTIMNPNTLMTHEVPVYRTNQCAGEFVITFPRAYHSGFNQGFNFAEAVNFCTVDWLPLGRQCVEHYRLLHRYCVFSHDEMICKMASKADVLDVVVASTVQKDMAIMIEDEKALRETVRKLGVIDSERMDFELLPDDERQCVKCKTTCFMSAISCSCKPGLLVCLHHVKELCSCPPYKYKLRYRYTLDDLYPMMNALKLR
Description: as §1
The reaction mixture was incubated at room temperature for 30 minutes, and terminated by the addition of 6 μl of 5 mM EDTA in LANCE detection buffer containing 50 nM Phycolink Streptavidin-allophycocyanin and 2 nM Europium-anti-H3K4me1-2 antibody.
as §2

JMJD2C = JMJD2C (Homo sapiens (Human), UniProt Q9H3R0); experiment: JMJD2C in vitro enzyme inhibition assay (TR-FRET); conditions: TR-FRET, H3K9me3-biotin peptide; read-out: IC50 JNJD2C
Chain of JMJD2C (Q9H3R0 2-372): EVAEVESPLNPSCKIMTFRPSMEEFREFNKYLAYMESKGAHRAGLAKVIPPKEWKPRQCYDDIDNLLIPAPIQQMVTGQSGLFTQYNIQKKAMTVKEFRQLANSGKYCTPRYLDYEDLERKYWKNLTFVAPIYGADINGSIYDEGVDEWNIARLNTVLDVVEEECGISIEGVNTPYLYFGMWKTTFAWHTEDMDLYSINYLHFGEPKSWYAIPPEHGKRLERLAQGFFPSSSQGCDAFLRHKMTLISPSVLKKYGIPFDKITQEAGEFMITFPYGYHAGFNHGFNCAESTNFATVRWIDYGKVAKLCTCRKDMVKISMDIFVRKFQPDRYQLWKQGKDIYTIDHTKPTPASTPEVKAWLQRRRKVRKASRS
Description: as §1
Reaction product was determined quantitatively by TR-FRET after the addition of detection reagent Phycolink Streptavidin-allophycocyanin (Prozyme) and Europium-anti-di-methylated histone H3 lysine 9 (H3K9me2) antibody (PerkinElmer) in the presence of 5 mM EDTA in LANCE detection buffer (PerkinElmer) at a final concentration of 50 nM and 1 nM, respectively.
The assay reaction was initiated by the following: 2 μl of the mixture of 900 nM H3K9me3-biotin labeled peptide and 6 μM alpha-ketoglutaric acid with 2 μl of 11-point serial diluted inhibitor in 3% DMSO were added to each well of the plate, followed by the addition of 2 μl of 0.9 nM JMJD2C to initiate the reaction. The reaction mixture was incubated at room temperature for 30 minutes, and terminated by the addition of 6 μl of 5 mM EDTA in LANCE detection buffer containing 100 nM Phycolink Streptavidin-allophycocyanin and 2 nM Europium-anti-H3K9me2 antibody.
as §2

Chain of Jarid1A (P29375 1-1090): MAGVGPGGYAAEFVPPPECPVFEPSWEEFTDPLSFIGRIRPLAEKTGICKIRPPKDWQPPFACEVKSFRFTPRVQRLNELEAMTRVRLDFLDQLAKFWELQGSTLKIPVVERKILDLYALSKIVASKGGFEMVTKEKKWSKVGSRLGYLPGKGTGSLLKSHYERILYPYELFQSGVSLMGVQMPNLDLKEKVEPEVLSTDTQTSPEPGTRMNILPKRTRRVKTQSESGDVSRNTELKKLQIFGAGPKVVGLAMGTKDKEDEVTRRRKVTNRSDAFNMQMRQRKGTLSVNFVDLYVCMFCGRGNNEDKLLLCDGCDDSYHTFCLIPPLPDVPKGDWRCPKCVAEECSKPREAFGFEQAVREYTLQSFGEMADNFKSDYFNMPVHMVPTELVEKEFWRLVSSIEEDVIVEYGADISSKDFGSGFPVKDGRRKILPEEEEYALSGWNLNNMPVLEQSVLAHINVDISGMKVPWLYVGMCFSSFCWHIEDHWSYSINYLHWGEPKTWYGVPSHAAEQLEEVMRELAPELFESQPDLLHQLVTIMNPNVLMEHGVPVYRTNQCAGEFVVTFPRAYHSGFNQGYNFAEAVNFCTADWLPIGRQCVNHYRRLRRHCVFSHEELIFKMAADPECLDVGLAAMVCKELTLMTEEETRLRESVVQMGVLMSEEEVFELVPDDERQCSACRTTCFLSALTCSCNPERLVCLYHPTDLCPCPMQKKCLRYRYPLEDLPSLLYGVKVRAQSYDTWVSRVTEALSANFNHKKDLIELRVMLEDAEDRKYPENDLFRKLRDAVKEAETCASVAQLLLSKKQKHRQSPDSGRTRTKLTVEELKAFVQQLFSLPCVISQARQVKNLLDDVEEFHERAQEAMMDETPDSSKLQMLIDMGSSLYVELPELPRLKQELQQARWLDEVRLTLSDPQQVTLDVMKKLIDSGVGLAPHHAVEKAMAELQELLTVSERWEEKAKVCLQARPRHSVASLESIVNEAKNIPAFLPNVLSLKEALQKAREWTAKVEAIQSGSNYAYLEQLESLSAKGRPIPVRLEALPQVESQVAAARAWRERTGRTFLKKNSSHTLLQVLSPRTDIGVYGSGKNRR

IC50 (Jarid1A) [nM] | IC50 (Jarid1B) [nM] | IC50 (JMJD2C) [nM] | SMILES
100 to 1000 | 100 to 1000 | 100 to 1000 | O=C(O)c1ccnc2cc(C(=O)N3CCCCC3)[nH]c12 [Example 109, 2-(piperidylcarbonyl)pyrrolo[3,2-b]pyridine-7-carboxylic acid]
> 10000 | > 10000 | > 10000 | COC(=O)c1ccnc2cc(-c3ccc(OC)cc3C)[nH]c12 [Example 15, methyl 2-(4-methoxy-2-methylphenyl)-1H-pyrrolo[3,2-b]pyridine-7-carboxylate]
100 to 1000 | < 100 | 100 to 1000 | CC1(C)CCCN1C(=O)c1cc2nccc(C(=O)O)c2[nH]1 [Example 124, 2-[(2,2-dimethylpyrrolidinyl)carbonyl]-pyrrolo[3,2-b]pyridine-7-carboxylic acid]
< 100 | < 100 | < 100 | O=C(O)c1ccnc2cc(COc3cc(F)cc(F)c3)[nH]c12 [Example 81, 2-[(3,5-difluorophenoxy)methyl]-1H-pyrrolo[3,2-b]pyridine-7-carboxylic acid]
< 100 | < 100 | < 100 | CC(O)(c1ccc(F)cc1)c1cc2nccc(C(=O)O)c2[nH]1 (centres unmarked) [Example 103, 2-[1-(4-fluorophenyl)-1-hydroxyethyl]-1H-pyrrolo[3,2-b]pyridine-7-carboxylic acid]
< 100 | < 100 | 100 to 1000 | O=C(O)c1ccnc2cc(C(=O)N3CCc4ccccc43)[nH]c12 [Example 107, 2-(indolinylcarbonyl)pyrrolo[3,2-b]pyridine-7-carboxylic acid]
< 100 | < 100 | 100 to 1000 | O=C(O)c1ccnc2cc(C(=O)N3CCC(c4ccccc4)C3)[nH]c12 (centres unmarked) [Example 116, 2-[(3-phenylpyrrolidinyl)carbonyl]-pyrrolo[3,2-b]pyridine-7-carboxylic acid]
100 to 1000 | 100 to 1000 | 100 to 1000 | O=C(O)c1ccnc2cc(-c3cc4ccccc4o3)[nH]c12 [Example 92, 2-(1-benzofuran-2-yl)-1H-pyrrolo[3,2-b]pyridine-7-carboxylic acid]
< 100 | < 100 | < 100 | O=C(O)c1ccnc2cc(Cc3ccc(F)c(Cl)c3)[nH]c12 [Example 112, 2-(3-chloro-4-fluorobenzyl)-1H-pyrrolo[3,2-6]pyridine-7-carboxylic acid]
100 to 1000 | 100 to 1000 | < 100 | COCc1cc2nccc(C(=O)O)c2[nH]1 [Example 41, 2-(methoxymethyl)-1H-pyrrolo[3,2-b]pyridine-7-carboxylic acid]
100 to 1000 | 1000 to 10000 | 1000 to 10000 | O=C(O)c1ccnc2cc(C(=O)N3CCCc4ccccc43)[nH]c12 [Example 105, 2-(1,2,3,4-tetrahydroquinolylcarbonyl)-pyrrolo[3,2-b]pyridine-7-carboxylic acid]
100 to 1000 | 100 to 1000 | 100 to 1000 | O=C(O)c1ccnc2cc(Cc3ccc(C(F)(F)F)cc3)[nH]c12 [Example 56, 2-[[4-(trifluoromethyl)phenyl]methyl]-1H-pyrrolo[3,2-b]pyridine-7-carboxylic acid]
> 10000 | > 10000 | > 10000 | COC(=O)c1ccnc2cc(CO)[nH]c12 [Example 9, methyl-2-(hydroxymethyl)-1H-pyrrolo[3,2-b]pyridine-7-carboxylate]
100 to 1000 | 100 to 1000 | < 100 | O=C(O)c1ccnc2cc(CCc3ccccc3)[nH]c12 [Example 70, 2-(2-phenylethyl)-1H-pyrrolo[3,2-b]pyridine-7-carboxylic acid]

SMILES | IC50 (Jarid1A) [nM] | IC50 (Jarid1B) [nM] | IC50 (JMJD2C) [nM]
CC(C)CC(Oc1ccccc1)c1cc2nccc(C(=O)O)c2[nH]1 (racemic) [Example 86, (±)-2-(3-methyl-phenoxybutyl)-1H-pyrrolo[3,2-b]pyridine-7-carboxylic acid] |  | […] | […]
